Experimental data reported in patent publication US20070142433A1, “Angiogenesis-affecting compounds and methods of use thereof” (priority 2004, published 2007).
Where a name gives a salt, the structure may show the parent alone.

How the values were obtained:
HUVEC sprouting [1] = experiment: Primary angiogenesis screen, HUVEC spheroid evaluation (EC sprouting); format: cell-based, human; settings: HUVEC spheroids in collagen gel, VEGF-supplemented, 24 hours
Protocol: A test substance was selected for evaluation in angiogenesis screens. The test substance was synthesized or obtained as appropriate and stored at −20° C. in DMSO. Prior to use, the test substance was thawed and 5 mM of the substance was diluted to a 10 fold concentrated working solution (100 μM) in endothelial cell basal medium. The basal medium fraction was supplemented with 25 ng VEGF/100 μl for the stimulation of HUVEC sprouting.
The screening procedures were modified versions of those described by Korff and Augustin (J Cell Sci 112: 3249-58, 1999). By way of summary, spheroids were prepared by pipetting 400 human umbilical vein endothelial cells (HUVEC) into each well of nonadhesive 96-well plates. Prior to use the HUVEC were cultured according to the supplier's instructions (PromoCell, Heidelberg, Germany). The cells were allowed to aggregate overnight into spheroids (Korff and Augustin: J Cell Biol 143: 1341-52, 1998). After aggregation, 48 HUVEC spheriods were harvested. Each harvested spheroid was seeded in 900 μl of methocel-collagen solution and pipetted into an individual well of a 24-well plate to allow collagen gel polymerization.
(§1) Thirty (30) minutes after seeding, the test substance was added. The working dilution (10 fold concentration) was utilized, 100 μl was pipetted on top of the polymerized collagen gel in each well. The plates were then incubated at 37° C. for 24 hours. At the end of the incubation period the plates were fixed by adding 1 ml paraformaldehyde (10%) to each well.
The HUVEC spheriods were microscopically assayed for endothelial cell (EC) sprouting intensity. The degree of EC sprouting was classified into one of four groups by comparing the degree of sprouting to that observed in VEGF control cells. […] For exemplary results, see FIG. 1.

[2] = tested on: angiogenesis induced by vascular permeability factor/vascular endothelial growth factor; settings: Basu S et al., Nat Med 2001; cited from earlier work
HUVEC sprouting [3] = experiment: 3D angiogenesis assay of stimulators (HUVEC sprouting alone, with VEGF, with PTK787/ZK222584); format: cell-based, human; settings: for HUVEC sprouting, compounds alone, compared to VEGF-induced sprouting: without addition of VEGF, 24 hours, basal sprouting subtracted, FIG. 22
Protocol: The HUVEC monolayer was treated for 6 hours with the compounds then the induced transcriptional changes, when compared to untreated HUVEC, were determined. The compounds were tested according to their ability to induce sprouting without addition of VEGF, in combination with VEGF and together with the VEGFR-2 inhibitor PTK787/ZK222584 (1 μM).

[4] = tested on: NHDF (human dermal fibroblasts) scattering; experiment: NHDF spheroid evaluation (fibroblast scattering); format: cell-based; settings: NHDF spheroids in collagen gel, no supplements, 24 hours
Protocol: Where the test compound was classified as an inhibitor or stimulator, a second screening process was performed. In the second screen, the test substance was thawed and 5 mM of the substance was diluted to a 10 fold concentrated working solution (100 μM) in endothelial cell basal medium. No supplements were used in the basal medium.
Instead of HUVEC, spheroids were prepared by pipetting 400 human dermal fibroblasts (NHDF) into each well of nonadhesive 96-well plates. Prior to use the NHDF were cultured according to the supplier's instructions (PromoCell, Heidelberg, Germany). The cells were allowed to aggregate overnight into spheroids (Korff and Augustin: J Cell Biol 143: 1341-52, 1998). After aggregation, 48 NHDF spheroids were harvested. Each of the harvested spheroids was seeded in 900 μl of methocel-collagen solution and pipetted into an individual well of a 24-well plate to allow collagen gel polymerization.
as §1
The NHDF spheroids were microscopically assayed for fibroblast scattering intensity. […] For exemplary results, see FIG. 1.

HDMEC = experiment: Cell proliferation assay (crystal violet), HDMEC; format: cell-based; settings: 72 hours, OD 595 nm
Protocol: (§2) In order to further confirm the surprising results described above, the compounds were tested in a cell proliferation assay. Crystal violet was used to measure cell proliferation; this basic dye stains cell nuclei and provides a sensitive, rapid evaluation. Light absorption of unstained or destained cell layers is negligible, making it possible to perform cell number measurements in wells. Six cell types (HUVEC, HDMEC, SMC, Fibroblast, A375 and RENCA) were plated and treated with the compounds in a log2 titration for 72 hours. The optimal cell number for each cell type was determined and optical density (OD) was measured at 595 nm. Each data point was measured in quadruplicate. The assay was stopped after 72 hours and subsequently analyzed. The OD-value of the plated cells before addition of the compounds was subtracted from all OD-values obtained after treatment. The percentage in relation to control proliferation was then calculated. Negative values therefore represent a count of fewer cells than were plated. The IC50 is given below in Table 1. Results are shown as a percentage in relation to the control proliferation. The IC50 were calculated using GraphPad Prism software (GraphPad Software, Inc.). Perhexiline results are depicted graphically in FIGS. 4A-4C and Erythromycin results in FIGS. 5A-5C.

A375 = experiment: Cell proliferation assay (crystal violet), A375; format: cell-based; settings: Homo sapiens, A-375, 72 hours, OD 595 nm
Protocol: as §2

SMC = experiment: Cell proliferation assay (crystal violet), SMC; format: cell-based; settings: 72 hours, OD 595 nm
Protocol: as §2

Fibroblast = experiment: Cell proliferation assay (crystal violet), Fibroblast; format: cell-based; settings: 72 hours, OD 595 nm
Protocol: as §2

HUVEC = experiment: Cell proliferation assay (crystal violet), HUVEC; format: cell-based; settings: Homo sapiens, 72 hours, OD 595 nm
Protocol: In order to further confirm the surprising results described above, the compounds were tested in a cell proliferation assay. Crystal violet was used to measure cell proliferation; this basic dye stains cell nuclei and provides a sensitive, rapid evaluation. Light absorption of unstained or destained cell layers is negligible, making it possible to perform cell number measurements in wells.
Six cell types (HUVEC, HDMEC, SMC, Fibroblast, A375 and RENCA) were plated and treated with the compounds in a log2 titration for 72 hours. The optimal cell number for each cell type was determined and optical density (OD) was measured at 595 nm. Each data point was measured in quadruplicate. The assay was stopped after 72 hours and subsequently analyzed.
The OD-value of the plated cells before addition of the compounds was subtracted from all OD-values obtained after treatment. The percentage in relation to control proliferation was then calculated. Negative values therefore represent a count of fewer cells than were plated. The IC50 is given below in Table 1. Results are shown as a percentage in relation to the control proliferation. The IC50 were calculated using GraphPad Prism software (GraphPad Software, Inc.). Perhexiline results are depicted graphically in FIGS. 4A-4C and Erythromycin results in FIGS. 5A-5C. […]

RENCA = experiment: Cell proliferation assay (crystal violet), RENCA; format: cell-based; settings: 72 hours, OD 595 nm
Protocol: as §2

B16F10 cells = experiment: Cell viability of B16F10 cells; format: cell-based; settings: Mus musculus, B16-F10; after 24 and 48 hours incubation
Protocol: A cell viability assay based on cellular reduction of resazurin to the fluorescent product resorufin was performed. Viable cells can metabolize and reduce the dye, whereas dead cells rapidly lose the capacity to do so, making the increase in fluorescence directly proportional to the number of viable cells. The tested compounds were added in a log2 titration and viable cells were analyzed 24 hours after treatment. The fluorescence was determined at an excitation wavelength of 560 nm and an emission wavelength of 590 nm. The percentage of viable cells in relation to the untreated control proliferation was calculated. […] Perhexiline results are depicted graphically in FIGS. 6A-6C and Erythromycin results in FIGS. 7A-7C.
Through the two aforementioned assays it was determined that RENCA cells are more sensitive when treated with Perhexiline than the other cell types in the proliferation assay and in the viability assay. Therefore, the B16F10 cells were subsequently tested. The B16F10 tumor model, like the RENCA model, is an orthotopic tumor model.

[5] = tested on: tumor size and vessel density; experiment: Further studies with other CPT-1 inhibitors; settings: CPT-1 inhibitors at 10 and 100 μm; FIGS. 37A-40
HUVEC sprouting [6] = experiment: Spheroid-based 3D angiogenesis assay (IC50, alone or with VEGFR-2 inhibitor); format: cell-based, human; settings: determined in the spheroid-based 3D assay (FIG. 10); read-out: IC50 of the VEGFR-2 inhibitors
Excerpt: Therefore, the assay was applied to test compounds alone or in combination with a VEGFR-2 inhibitor to address changes in IC50. […] The VEGFR-2 inhibitor was applied at a concentration close to the IC50.

[7] = tested on: Alexander cells (PLC/PRF/5) subcutaneous tumor; experiment: Hepato-Cellular Carcinoma Model (HCC) in vivo study, subcutaneous Alexander cells; design: species or system NMRI nu/nu mice; settings: subcutaneous Alexander cell tumors in mice, about 21 days of treatment; FIGS. 28-30
Protocol: Monolayers of Alexander cells can be grown in 85% Dulbecco's Modified Eagle's Medium (DMEM), 15% Fetal Bovine Serum (FBS), 4 mM L-glutamine, 100 units penicillinG/ml, and 100 μg of streptomycin-sulfate/ml. The cells can be cultured in a humidified atmosphere of 90% air and 10% carbon dioxide at 37° C. Media may preferably be changed every 4 days.
Six to eight week old female NMRI^−nu/nu mice could be utilized. The Alexander cells can be implanted in the left flank region of the mice, for example, by injecting 4×10^7 cells in 0.2 ml aliquots into the subcutaneous space of the left flank using a 29 G needle syringe. After inoculation the appearing subcutaneous tumours can be measured by callipering and multiplying the distances of all three dimensions.
Therapy can be initiated after the tumor size has reached a volume of approximately 100 mm^3 (day 1 of the study), and continue for about 21 days.
As shown, Group 1 would serve as control, where the animals would receive no further treatment after injection of Alexander cells.
After approximately 21 days of treatment, mice could be sacrificed and tumors collected and optionally stored appropriately at −80° C. For histological examination of the tumor vasculature, cryosections of the tissues (thickness of 5-10 μm) can be taken. For visualization of the blood vessels, immunohistochemical staining for CD 31 (PECAM-1) can be performed, and vessels counted microscopically using a defined magnification (×200).

Clc1ccc(CSC(Cn2ccnc2)c2ccc(Cl)cc2Cl)cc1 (racemic) [Sulconazole, (±)-1-[2.4-dichloro-b-[(p-chlorobenzyl)-thio]-phenethyl]imidazole mononitrate]
EC sprouting intensity compared with VEGF control (HUVEC sprouting [1]): angiogenesis stimulators

CC(C)C[C@H]1C(=O)N2CCC[C@H]2[C@]2(O)O[C@](NC(=O)[C@@H]3C=C4c5cccc6[nH]c(Br)c(c56)C[C@H]4N(C)C3)(C(C)C)C(=O)N12 [Bromocriptine, Bromocriptine mesylate]
effect on angiogenesis (literature) [2]: prevent angiogenesis | EC sprouting intensity compared with VEGF control (HUVEC sprouting [1]): angiogenesis stimulator | HUVEC sprouting, compounds alone, compared to VEGF-induced sprouting (HUVEC sprouting [3]): stimulated sprouting in excess of the VEGF-induced sprouting

C#C[C@]1(O)CC[C@H]2[C@@H]3CCC4=Cc5oncc5C[C@]4(C)[C@H]3CC[C@@]21C [Danazol]
EC sprouting intensity compared with VEGF control (HUVEC sprouting [1]): increased sprouting stimulation | fibroblast scattering (invasion) effect [4]: no fibroblast invasion effect

NCCc1ccc(O)c(O)c1 [Dopamine]
effect on angiogenesis (literature) [2]: prevent angiogenesis

Clc1ccc(COC(Cn2ccnc2)c2ccc(Cl)cc2Cl)cc1.O=[N+]([O-])O (centres unmarked) [Econazole, 1-[2-{(4-chloro-phenyl)methoxy}-2-(2,4-dichlorophenyl)ethyl]-1H-imidazole mononitrate]
EC sprouting intensity compared with VEGF control (HUVEC sprouting [1]): angiogenesis stimulators

CC[C@H]1OC(=O)[C@H](C)[C@@H](O[C@H]2C[C@@](C)(OC)[C@@H](O)[C@H](C)O2)[C@H](C)[C@@H](O[C@@H]2O[C@H](C)C[C@H](N(C)C)[C@H]2O)[C@](C)(O)C[C@@H](C)C(=O)[C@H](C)[C@@H](O)[C@]1(C)O [Erythromycin]
IC50 (HDMEC): ~100 µM | IC50 (A375): > 100 µM | IC50 (SMC): > 100 µM | EC sprouting intensity compared with VEGF control (HUVEC sprouting [1]): sprouting inhibition | IC50 (Fibroblast): > 100 µM | IC50 (HUVEC): > 100 µM | IC50 (RENCA): 56 µM | fibroblast scattering (invasion) effect [4]: no fibroblast invasion effect | IC50 (B16F10 cells): 10 µM

CCc1cc(Cl)c(OC)c(C(=O)NC[C@@H]2CCCN2CC)c1O [Eticlopride]
effect on angiogenesis (literature) [2]: not effect on angiogenesis | HUVEC sprouting, compounds alone, compared to VEGF-induced sprouting (HUVEC sprouting [3]): stimulated sprouting in excess of the VEGF-induced sprouting

CCOC(=O)[C@@]1(CCCCCCOc2ccc(Cl)cc2)CO1 [Etomoxir]
effects on tumor size and vessel density (as seen with Perhexiline) [5]: not seen

CCN(CC)C(=O)N[C@H]1C=C2c3cccc4[nH]cc(c34)C[C@H]2N(C)C1 [Lisuride (S)(−)]
EC sprouting intensity compared with VEGF control (HUVEC sprouting [1]): increased sprouting stimulation | fibroblast scattering (invasion) effect [4]: no fibroblast invasion effect

CC(C)(COP(=O)(O)OP(=O)(O)OC[C@H]1O[C@@H](n2cnc3c(N)ncnc32)[C@H](O)[C@@H]1OP(=O)(O)O)[C@@H](O)C(=O)NCCC(=O)NCCSC(=O)CC(=O)O [Malonyl-CoA]
effects on tumor size and vessel density (as seen with Perhexiline) [5]: not seen

Clc1ccc(COC(Cn2ccnc2)c2ccc(Cl)cc2Cl)c(Cl)c1 (centres unmarked) [Miconazole]
EC sprouting intensity compared with VEGF control (HUVEC sprouting [1]): increased sprouting stimulation | fibroblast scattering (invasion) effect [4]: no fibroblast invasion effect

Clc1ccc(Nc2nnc(Cc3ccncc3)c3ccccc23)cc1 [PTK787/ZK222584]
IC50 (HUVEC sprouting [6]): 0.1 µM | tumor growth compared to control [7]: reduced | VEGF-induced sprouting (HUVEC sprouting [3]; at a concentration of 1 μM): completely prevents VEGF-induced sprouting

COc1ccc(CN2CCNCC2)c(OC)c1OC [Trimetazidine dihydrochloride]
effects on tumor size and vessel density (as seen with Perhexiline) [5]: not seen
